Experimental data taken from patent US20210205638A1, “PARATHYROID HORMONE AND REGENERATION OF DEGENERATIVE DISCS DISEASE” (THE JOHNS HOPKINS UNIVERSITY, priority 2017, published 2021).

Key:
[1] = tested on: 18-month-old mice; assay: iPTH in aged mice: in vivo micro-MRI of lumbar IVDs; parameters: species or system mouse; conditions: iPTH injection
Procedure: In vivo Spinal IVD imaging was conducted with a horizontal 30-cm-bore 9.4T Bruker Biospec preclinical scanner equipped with custom-built, single-turn volume coil positioned orthogonal to the BO magnetic field. Anesthetization of mice was initiated with 4% isoflurane and maintained with a 2% isoflurane and oxygen mixture. Mice were placed supine on a tray and taped to minimize the motion artifacts. We acquired T2-weighted images using a relaxation enhancement (RARE) sequence with the following parameter: an echo time/repetition time (TE/TR) of 15.17 ms/3,000 ms, 35 slices at thickness of 0.35 mm, field of view (FOV) of 1.75 cm×1.75 cm and matrix size of 256×128. All T2-weighted images were processed to a final matrix size of 256×256 with an isotropic resolution of 0.068 mm pixel-1. For quantification of signal intensity as an indicator of disc tissue hydration, the region of interest at L3-L4 level in each group was selected and measured using Image-Pro Plus Software version 6.

[2] = tested on: integrin β6; assay: Western blot of integrin β6 in NP cells at time points after PTH; assay type: cell-based, mouse; conditions: PTH1-34 100 nM, time dependent manner
Procedure: Western blot analyses were conducted on the protein lysates from in vitro cultured NP cells or NP tissues from mice at specific time points after PTH (1-34) treatment and human at different ages with lumbar disc degeneration. The protein extract was centrifuged, the concentration of supernatant evaluated by DC protein assay (Bio-Rad Laboratories), and then separated by SDS-PAGE and blotted on a polyvinylidene fluoride membrane (Bio-Rad Laboratories). Following incubation in specific antibodies, we detected proteins using an enhanced chemiluminescence kit (Amersham Biosciences). We used specific antibodies recognizing rabbit CTGF (CCN2) (Abcam, 1:1000), Aggrecan (ACAN) (Abcan, 1:1000), p-Smad2 (Cell Signaling Technology Inc., 1:1000), Smad2 (Cell Signaling Technology Inc., 1:1000), GAPDH (Cell Signaling Technology Inc., 1:1000), CREB (Abcam, 1:2500), pCREB (Abcam, 1:2500), PTH1R PRB-635P (Covance, 1:100), PTH1R PRB-640P (Covance, 1:500) and goat integrin β6 (Santa Cruz, 1:500) to examine the protein concentrations in the lysates. Co-immunoprecipitation analyses were conducted on the nuclear and cytoplasmic protein extraction using NE-PER Nuclear and Cytoplasmic Extraction Kit (Pierce Thermo Scientific, 78833) from in vitro cultured NP cells treated with PTH (1-34) or vehicle.

[3] = tested on: NP cells; assay: Western blot of pCREB in NP cells of IFT88-/- or IFT88+/+ mice; assay type: cell-based, mouse
Procedure: Green fluorescent protein (GFP) labeled NP cells of notochordal origin were isolated from 15-day old Noto^Cre/+::ROSA26-lacZ^flox/flox male mice as previously described. The NP cells from 15-day old PTH1R^+/+ and PTH1R^−/−, IFT88^+/+ and IFT88^−/− male mice. Briefly, the cells were isolated from the NP region of IVDs in the spinal column from mid thoracic to lower lumbar region and digested initially with TrypLE Express (Gibco) for 30 minutes on shaker, followed by 0.25 mg/ml Collagense-P (Roche) for another […] at 37° C. The digested cells were washed twice with PBS, and cultured in α-MEM (Gibco) supplemented with 10% fetal calf serum (Atlanta Biologicals), and 1% penicillin—streptomycin (Mediatech) to 80-90% confluence at 37° C., 5% CO2 and 5% O2.
Western blot analyses were conducted on the protein lysates from in vitro cultured NP cells or NP tissues from mice at specific time points after PTH (1-34) treatment and human at different ages with lumbar disc degeneration. The protein extract was centrifuged, the concentration of supernatant evaluated by DC protein assay (Bio-Rad Laboratories), and then separated by SDS-PAGE and blotted on a polyvinylidene fluoride membrane (Bio-Rad Laboratories). Following incubation in specific antibodies, we detected proteins using an enhanced chemiluminescence kit (Amersham Biosciences). […]

[4] = tested on: NP cells; assay: iPTH in IFT88-/- and wild-type mice: immunostaining of pSmad2/3, CCN2, ACAN; assay type: in vivo, mouse
Procedure: The 11 month-old PTH1R^+/+ and PTH1R^−/− male mice were randomized into four groups: PTH1R^+/++PTH (1-34), PTH1R^+/++Vehicle, PTH1R^−/−+PTH (1-34) and PTH1R^−/−+Vehicle groups (n=8 per group). The 11 month-olds IFT88^+/+ and IFT88^−/− male mice were randomized into four groups: IFT88^+/++PTH (1-34), IFT88^+/++Vehicle, IFT88^−/−+PTH (1-34) and IFT88^−/−+Vehicle groups (n=8 per group). Mice were subcutaneously injected with either PTH (1-34) or vehicle (1 mM acetic acid in phosphate buffered saline (PBS) with equivalent volume of PTH) daily, 5 days per week, and all mice were sacrificed 4 weeks after treatment with PTH (1-34)/vehicle.
For immunocytochemical staining, we incubated GFP labeled NP cells co-stained with primary antibody to rabbit PTH1R PRB-635P (Covance, 1:100) for 1 h and subsequently stained with secondary antibodies conjugated with fluorescence at room temperature. At the time of euthanasia, we dissected and fixed the lumbar vertebral spine in 10% buffered formalin for 48 h, decalcified them in 10% EDTA (pH 7.4) for 14-21 days and embedded them in paraffin or optimal cutting temperature (OCT) compound (Sakura Finetek). Fourmicrometer-thick coronal-oriented sections of the L1-L6 spine were processed for safranin O and fast green staining. Sections for immunostaining was performed using a standard protocol and incubated with primary antibodies to rabbit ACAN (Abcam, 1:100), CCN2 (Abcam, 1:100), integrin β8 (Abcam, 1:200), pCREB (Abcam, 1:100) and PTH1R PRB-635P (Covance, 1:100), mouse pSmad2/3 (Santa Cruz, 1:100), integrin αvβ6 (Millipore, 1:100), integrin αvβ3 (Bioss, 1:100,), integrin αvβ5 (Bioss, 1:100) at 4° C. overnight. For immunohistochemical staining, a horse radish peroxidase-streptavidin detection system (Dako) was subsequently used to detect the immunoactivity, followed by counterstaining with hematoxylin (Sigma-Aldrich). For immunofluorescent assay, the slides were incubated with secondary antibodies conjugated with fluorescence at room temperature for 1 h while avoiding light. We used isotype-matched controls, such as polyclonal rabbit IgG (R&D Systems, AB-105-C) under the same concentrations and conditions as negative controls. We micro photographed sections to perform histomorphometric measurements on the entire area of the L3-L4 of the spine (Olympus DP71).
Quantitative histomorphometric analysis was conducted in a blinded fashion with Image-Pro Plus Software version 6.0 (Media Cybernetics Inc). IVD histological score were obtained as previously described67. Five randomly selected sections per mice in each group at L3-L4 level were chosen for quantitative histomorphometric analysis. The percentage of pSmad2/3 and pCREB positive cells was obtained by counting the number of positive staining cells to the number of total cells in the NP region. The percentage area of CCN2 and ACAN positive staining was calculated by measuring the positive area to the whole area of the L3-L4 in each group.

[5] = wild-type mice relative to vehicle mice

Structure (SMILES): CC[C@H](C)[C@H](NC(=O)[C@H](CCC(=O)O)NC(=O)[C@H](CO)NC(=O)[C@@H](NC(=O)[C@@H](N)CO)C(C)C)C(=O)N[C@@H](CCC(N)=O)C(=O)N[C@@H](CC(C)C)C(=O)N[C@@H](CCSC)C(=O)N[C@@H](Cc1cnc[nH]1)C(=O)N[C@@H](CC(N)=O)C(=O)N[C@@H](CC(C)C)C(=O)NCC(=O)N[C@@H](CCCCN)C(=O)N[C@@H](Cc1cnc[nH]1)C(=O)N[C@@H](CC(C)C)C(=O)N[C@@H](CC(N)=O)C(=O)N[C@@H](CO)C(=O)N[C@@H](CCSC)C(=O)N[C@@H](CCC(=O)O)C(=O)N[C@@H](CCCN=C(N)N)C(=O)N[C@H](C(=O)N[C@@H](CCC(=O)O)C(=O)N[C@@H](Cc1c[nH]c2ccccc12)C(=O)N[C@@H](CC(C)C)C(=O)N[C@@H](CCCN=C(N)N)C(=O)N[C@@H](CCCCN)C(=O)N[C@@H](CCCCN)C(=O)N[C@@H](CC(C)C)C(=O)N[C@@H](CCC(N)=O)C(=O)N[C@@H](CC(=O)O)C(=O)N[C@H](C(=O)N[C@@H](Cc1cnc[nH]1)C(=O)N[C@@H](CC(N)=O)C(=O)N[C@@H](Cc1ccccc1)C(=O)O)C(C)C)C(C)C [PTH (1-34), teriparatide]
- MRI signal intensity of lumbar IVDs [1]: significantly increased
- protein level of β6 integrin [2]: significantly stimulated
- levels of CREB phosphorylation by PTH ([3]; IFT88-/- NP cells (disruption of primary cilia)): significantly reduced
- phosphorylation of CREB (Western blot) ([3]; NP cells of wild-type mice): significantly stimulated
- PTH effect on level of CCN2 ([4]; IFT88-/- mice): blunted
- PTH effect on level of aggrecan ([4]; IFT88-/- mice): blunted
- PTH effect on number of pSmad2/3+ NP cells ([4]; IFT88-/- mice): blunted
- level of CCN2 [4, 5]: significantly stimulated
- level of aggrecan [4, 5]: significantly stimulated
- number of pSmad2/3+ NP cells [4, 5]: significantly stimulated
